The source of these data is patent US20070207198A1, “Use Of N-Acety1-D-Glucosamine In The Manufacture Of Medicaments For Anti-Tumors And Anti-Metastasis” (Beijing Sino-Hong Kong Dafu Science & Technology of Biowave …, priority 2003, published 2007).

The subject of one data set is B16 cells. As to the kind of experiment: Sole-injected B16 tumor growth in mice. It counts as in vivo, Kunming mice and Balbc mice. Also noted: Diameter of tumor: unit not given here. The settings on record: for Diameter of tumor: 10% aqueous solution i.p. The protocol:
1.1 Animals Kunming mice, Scad male mice
1.2 Tumor cells: B16 cells, PG cells and Biu cells, which were presented by from the Staff Room of Pathology of the present university and the Tumor Department of the Second Affiliated Hospital, respectively.
1.3 Methods: soles of Kunming mice and Balbc mice were injected with B16 cell suspension, and these mice were intraperitoneally injected with 10% aqueous solution of the compound of formula (I) at 0th, 4th and 7th day after B16 cells were injected.

The subject of the next data set is Proteus Mirabilis. Briefly: Promoting wave test (bio-wave model). It counts as cell-based. The following applies: final concentration 0.5% on LB plate, 37° C. An excerpt: 2. Experimental results and evaluation: • The experiment adopted a bio-wave model for studying the promoting wave function of the compound of formula (I).
For data set [1] the following is noted: in vivo. An excerpt: 1. Acute toxicity test: including tests of administrating medicine orally, intravenous injection and maximum limit amount for administration;
Data set [2] is described as follows: Typical case: breast cancer patient, metastasis after operation. It counts as in vivo, human. The following applies: injection 15 g/60 kg/day before and for a week after the operation; within one year after the operation. An excerpt:
Chen, female, was accepted by the Department of Surgery of Chuanxinan Mining Area Hospital for suffering with breast cancer. The chief physician, Chen Qi, considered the high metastasis rate after operation, administrated Chen via injected with the compound of formula (I) in a dose of 15 g/60 kg/day before the operation and for a continuous week after the operation.

For the compound `CC(=O)N[C@@H]1[C@@H](O)[C@H](O)[C@@H](CO)O[C@H]1O` [compound of formula (I), N-acetyl-D-glucosamine], the Diameter of tumor was found to be 0 in the data set with B16 cells (Group I (administered immediately), observation time 3); 0.11 in the data set with B16 cells (Group I (administered immediately), observation time 7); 0.18 in the data set on B16 cells (Group I (administered immediately), observation time 14); 0.21 in the data set on B16 cells (Group I (administered immediately), observation time 21); 0.15 in the data set on B16 cells (Group I (administered immediately), observation time 28); 0.05 in the data set with B16 cells (Group II (administered at the 4th day), observation time 3). Besides, the Diameter of tumor with B16 cells (Group II (administered at the 4th day), observation time 7) came to 0.12; in the data set with B16 cells (Group II (administered at the 4th day), observation time 14), 0.43; in the data set on B16 cells (Group II (administered at the 4th day), observation time 21), 0.58; in the data set with B16 cells (Group II (administered at the 4th day), observation time 28), 0.72; in the data set with B16 cells (Group III (administered at the 7th day), observation time 3), 0.1; in the data set on B16 cells (Group III (administered at the 7th day), observation time 7), 0.21. In addition, the Diameter of tumor in the data set with B16 cells (Group III (administered at the 7th day), observation time 14) is recorded as 0.60; in the data set with B16 cells (Group III (administered at the 7th day), observation time 21) it was 1.10; in the data set with B16 cells (Group III (administered at the 7th day), observation time 28), 1.38. Also, the growth of tumor result in the data set on B16 cells (high concentration intraperitoneally injected, B16 cells) was “inhibited”. Besides, the “promoting wave function (ring pattern compared with control)” value with Proteus Mirabilis was “many fine waves on each ring emerged”. Also, in data set [1], the “acute dosage relative to the injection dosage for human being” value was found to be 300 times. The “dosage at which the acute toxicosis reaction had not appeared” value in data set [1] was “more than 2 g/kg”. For the same compound, the metastasis after operation entry in data set [2] is on record as “no metastasis occurred”.
